Results reported in ChEMBL document CHEMBL3271981, “Potential histamine H2-receptor antagonists. 3. Methylhistamines” (J Med Chem, 1976).
Activity calls are given as the source filed them. The calls are words filed in the database; no cut-off is given here.

How the values were obtained:
[1] = test system: Rattus norvegicus; experiment: In vivo antagonist activity at histamine H2 receptor in anesthetized rat assessed as inhibition of histamine-stimulated gastric acid secretion up to 256 umol/kg, iv; type: functional, organism-based; settings: Stomach
[2] = molecular target: Histamine H1 receptor (Cavia porcellus) (UniProt P31389); experiment: In vitro agonist activity at histamine H1 receptor in guinea pig ileum assessed as contractile response relative to histamine in presence of atropine; type: tissue-based
[3] = test system: Rattus norvegicus; experiment: In vivo agonist activity at histamine H2 receptor in iv dosed anesthetized rat assessed as stimulation of gastric acid secretion relative to histamine; type: functional, Stomach
[4] = Retardation factor of the compound using MeOH-NH4OH-H2O at ratio of 6:1:1 as solvent system by thin layer chromatography; type: physicochemical
[5] = Retardation factor of the compound using EtOCH2CH2OH-HCl(11N)-H2O at ratio of 8:1:1 as solvent system by thin layer chromatography; type: physicochemical; settings: buffer
[6] = test system: Rattus norvegicus; experiment: In vivo agonist activity at histamine H2 receptor in anesthetized rat assessed as stimulation of gastric acid secretion at 486 uml/kg, iv; type: functional, organism-based; settings: Stomach

Sequence of Histamine H1 receptor (Cavia porcellus) (P31389 whole entry): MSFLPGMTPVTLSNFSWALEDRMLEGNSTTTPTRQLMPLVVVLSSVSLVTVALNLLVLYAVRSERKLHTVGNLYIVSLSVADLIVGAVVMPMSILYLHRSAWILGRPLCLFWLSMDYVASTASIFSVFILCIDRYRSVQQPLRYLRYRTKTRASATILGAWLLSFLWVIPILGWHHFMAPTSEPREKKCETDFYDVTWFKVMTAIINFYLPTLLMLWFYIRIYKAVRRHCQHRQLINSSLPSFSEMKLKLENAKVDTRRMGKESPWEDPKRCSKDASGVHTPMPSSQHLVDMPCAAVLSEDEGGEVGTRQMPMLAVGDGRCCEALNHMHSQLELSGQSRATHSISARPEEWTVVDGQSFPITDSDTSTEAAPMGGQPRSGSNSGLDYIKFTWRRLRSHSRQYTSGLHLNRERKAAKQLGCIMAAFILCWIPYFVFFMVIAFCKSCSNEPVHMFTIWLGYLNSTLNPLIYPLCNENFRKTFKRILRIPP

SMILES	Activity [1]	Activity [2]	Activity [3]	Rf [4]	Rf [5]	Activity [6]
CC(N)Cc1cnc[nH]1.Cl (stereo not given)	inactive	0.36%	0.8%	–	–	–
NCCc1c[nH]cn1 [HISTAMINE]	–	–	–	0.52	0.7	–
CC(C)(CN)c1cnc[nH]1	inactive	< 0.001%	–	–	–	inactive
Cc1ncc(CCN)[nH]1.Cl	–	16.5%	2%	–	–	–
Cc1nc[nH]c1CCN(C)C.Cl	–	0.1%	3%	0.72	0.57	–
Cc1ncc(CCN(C)C)[nH]1.Cl	–	16.8%	1.4%	–	–	–
CNCCc1cnc[nH]1.Cl	–	72%	74%	0.46	0.68	–
CNCCc1[nH]cnc1C.Cl	–	0.16%	8.2%	0.51	0.7	–
CC(CN)c1cnc[nH]1.Cl (stereo not given)	inactive	0.83%	0.4%	–	–	–
Cl.Cn1cncc1CCN	inactive	< 0.01%	<0.2%	0.63	0.56	–
CN(C)CCc1cnc[nH]1.Cl	–	44%	19%	–	–	–
Cc1nc[nH]c1CCN.Cl	–	0.23%	39%	0.56	0.7	–
Cl.Cl.Cn1cnc(CCN)c1 [N-METHYLHISTAMINE DIHYDROCHLORIDE]	inactive	0.5%	–	–	–	–
